What was measured:
[1] = Thiol Vapor Pressure Suppression (TVPS) index, headspace butanethiol by zNose fast GC; format: physicochemical; settings: 5 µl compound vs 100 µl of 1% v/v butanethiol in ethanol, 37 °C for 4 hours; percentage reduction in butanethiol peak area
Source text: Thiol Vapor Pressure Suppression (TVPS) index is a measure of the reduction in butanethiol concentration in the headspace by a compound, as measured using a fast GC instrument, the zNose 7100 (Electronic Sensor Technologies, Newbury Park, CA). Before any measurements the instrument is calibrated according to manufacturer's instructions under the same experimental settings. The instrument has a DB-5 column (EST Part No.SYS7100C5, Electronic Sensor Technologies, Newbury Park, CA) 1 m in length, 0.25 µm phase thickness, and 0.25mm in diameter. […]
TVPS of a compound is measured in the following way: 100 µl ± 1 µl of a 1% v/v butanethiol (99%, purity) solution in ethanol (200 proof) is added into a 1 ml vial (8 x 40 mm). […]
The amount of butanethiol in the headspace is measured from the area of the peak on the chromatograph for butanethiol (ABtSH,Rx). To calculate the percentage of butanethiol reduction in the headspace, a control with the butanethiol solution without the volatile material is run in the same manner and the area is measured as well (ABtSH,C). TVPS is then measured as the percentage reduction in butanethiol area calculated using the following formula: TVPS = (ABtSH,C −ABtSH,Rx)/(ABtSH,C) × 100 [formula]

[2] = Solubility of Vitamin B5 derivatives in anhydrous stick formulations; format: physicochemical
Source text: Additional considerations regarding exemplary Vitamin B5 derivatives may apply. For example, in order to deliver Vitamin B5 (or a derivative thereof) from an anhydrous, hydrophobic, glycol free and antiperspirant free cosmetic stick, a corresponding matrix soluble form or derivative of Vitamin B5 must be used to achieve the desired benefits of hair softening, shave bump reduction and wound healing from shave cut damage. For example, if an incompatible or insoluble form of Vitamin B5 is used, such as panthenol, this will not form a homogenous one phase solution when the ingredients are blended and heated together from the melt.
As such, the Vitamin B5 derivative utilized should be soluble in the anhydrous, hydrophobic, glycol free and antiperspirant free matrix.

Row | Solublility in hydrophobic Anhydrous, glycol free, antiperspirant free Stick formulations [2] | Compound | TVPS [1]
1 | – | CC(C)c1cccc(C(C)CC=O)c1 (stereo not drawn) [Florhydral] | 50.5
2 | Soluble | CC(=O)OCCCNC(=O)[C@H](OC(C)=O)C(C)(C)COC(C)=O [Panthenyl Triacetate] | –
3 | Soluble | Panthenyl Ethyl Ether | –
